biological target: T1, BTK (Homo sapiens, UniProt Q06187); assay: BTK degradation assay using the HiBiT Method (Nano-Glo HiBiT Lytic Assay, GM01501.3 cells); format: cell-based; conditions: HiBiT Degradation on GM01501.3 BTK @ 6 hours
T1 construct: The GM01501.3 cell line endogenously expresses BTK with a HiBiT fusion tag via CRISPR knock-in at its C-terminal region; endogenous in cells; host or cells: GM01501.3 (GM01501 cells engineered by CRISPR knock-in of HiBiT at the BTK locus)
In short: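 CRISPR knock-in GM01501.3 cells expressing endogenous BTK with C-terminal HiBiT tag, treated 6 h at 37 °C with compounds, 11-point half-log titration from 10 μM top, duplicates. Remaining BTK quantified by Nano-Glo HiBiT lytic luminescence versus DMSO controls; DC50 reported.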

T1 sequence (Q06187 whole entry, the tested form may be a part): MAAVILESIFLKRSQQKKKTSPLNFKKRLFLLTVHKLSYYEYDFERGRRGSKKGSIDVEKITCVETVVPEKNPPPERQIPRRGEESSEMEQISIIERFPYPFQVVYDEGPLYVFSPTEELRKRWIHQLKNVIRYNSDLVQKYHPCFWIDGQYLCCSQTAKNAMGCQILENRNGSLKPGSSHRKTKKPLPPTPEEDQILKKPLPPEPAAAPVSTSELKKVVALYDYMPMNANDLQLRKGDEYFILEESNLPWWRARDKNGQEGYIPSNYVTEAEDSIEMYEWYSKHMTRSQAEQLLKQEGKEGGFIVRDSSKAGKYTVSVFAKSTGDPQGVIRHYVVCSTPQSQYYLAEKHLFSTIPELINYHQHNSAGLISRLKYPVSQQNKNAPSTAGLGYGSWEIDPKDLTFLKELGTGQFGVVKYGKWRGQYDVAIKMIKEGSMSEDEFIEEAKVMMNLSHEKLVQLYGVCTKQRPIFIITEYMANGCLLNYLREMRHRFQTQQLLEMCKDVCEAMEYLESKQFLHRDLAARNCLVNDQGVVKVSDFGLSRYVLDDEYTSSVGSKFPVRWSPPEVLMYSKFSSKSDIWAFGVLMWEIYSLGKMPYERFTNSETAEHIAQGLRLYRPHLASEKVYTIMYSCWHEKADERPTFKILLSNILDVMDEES

Going from `Cc1cc(-c2ccnc3cc(CCCCN4CCC(c5ccc(NC6CCC(=O)NC6=O)cc5)CC4)nn23)ccc1CNC(=O)c1noc(C(C)(C)C)n1` (centres unmarked) [Example 163, 5-tert-butyl-N-[[4-[2-[4-[4-[4-[(2,6-dioxo-3-piperidyl)amino]phenyl]-1-piperidyl]butyl]pyrazolo[1,5-a]pyrimidin-7-yl]-2-methyl-phenyl]methyl]-1,2,4-oxadiazole-3-carboxamide] to `Cc1cc(-c2ccnc3nn(CCCCN4CCC(c5ccc(NC6CCC(=O)NC6=O)cc5)CC4)cc23)ccc1CNC(=O)c1noc(C(C)(C)C)n1` (centres unmarked) [Example 160, 5-tert-butyl-N-[[4-[2-[4-[4-[4-[(2,6-dioxo-3-piperidyl)amino]phenyl]-1-piperidyl]butyl]pyrazolo[3,4-b]pyridin-4-yl]-2-methyl-phenyl]methyl]-1,2,4-oxadiazole-3-carboxamide], the DC50 rises from < 100 nM to > 1000 nM.

`Cc1cc(-c2ncnn3cc(-c4cnn(CCN5CCN(c6ccc(C7CCC(=O)NC7=O)cn6)CC5)c4)cc23)ccc1CNC(=O)c1noc(C(C)(C)C)n1` (centres unmarked) [Example 298, 5-(tert-butyl)-N-(4-(6-(1-(2-(4-(5-(2,6-dioxopiperidin-3-yl)pyridin-2-yl)piperazin-1-yl)ethyl)-1H-pyrazol-4-yl)pyrrolo[2,1-f] [1,2,4]triazin-4-yl)-2-methylbenzyl)-1,2,4-oxadiazole-3-carboxamide] and `Cc1cc(-c2ncnn3cc(CCN4CCN(c5ccc(NC6CCC(=O)NC6=O)cn5)CC4)cc23)ccc1CNC(=O)c1noc(C(C)(C)C)n1` (centres unmarked) [Example 260, 5-(tert-butyl)-N-(4-(6-(2-(4-(5-((2,6-dioxopiperidin-3-yl)amino)pyridin-2-yl)piperazin-1-yl)ethyl)pyrrolo[2,1-f][1,2,4]triazin-4-yl)-2-methylbenzyl)-1,2,4-oxadiazole-3-carboxamide] cannot be ordered by DC50: < 100 nM for the first, < 100 nM for the second.

`Cc1cc(-c2ncnn3cc(-c4cnc(Oc5ccc(CN6CCC(c7ccc(C8CCC(=O)NC8=O)cc7)CC6)cc5)nc4)cc23)ccc1CNC(=O)c1noc(C(C)(C)C)n1` (centres unmarked) [Example 206, 5-(tert-butyl)-N-(4-(6-(2-(4-((4-(4-(2,6-dioxopiperidin-3-yl)phenyl)piperidin-1-yl)methyl)phenoxy)pyrimidin-5-yl)pyrrolo[2,1-f][1,2,4]triazin-4-yl)-2-methylbenzyl)-1,2,4-oxadiazole-3-carboxamide] and `COc1cc(CN2CCC(c3ccc(C4CCC(=O)NC4=O)cc3)CC2)ccc1-c1cc2c(-c3ccc(CNC(=O)c4noc(C(C)(C)C)n4)c(C)c3)ncnn2c1` (centres unmarked) [Example 22, 5-tert-butyl-N-[[4-[6-[4-[[4-[4-(2,6-dioxo-3-piperidyl)phenyl]-1-piperidyl]methyl]-2-methoxy-phenyl]pyrrolo[2,1-f][1,2,4]triazin-4-yl]-2-methyl-phenyl]methyl]-1,2,4-oxadiazole-3-carboxamide] cannot be ordered by DC50: < 100 nM for the first, < 100 nM for the second.

`CC(C)(C)c1nc(C(=O)NCc2ccc(-c3ncnn4cc(-c5ccc(CN6CCC(Cc7ccc(OC8CCC(=O)NC8=O)cc7)C6)cn5)cc34)cc2F)no1` (centres unmarked) [Example 237, 5-(tert-butyl)-N-(4-(6-(5-((3-(4-((2,6-dioxopiperidin-3-yl)oxy)benzyl)pyrrolidin-1-yl)methyl)pyridin-2-yl)pyrrolo[2,1-f][1,2,4]triazin-4-yl)-2-fluorobenzyl)-1,2,4-oxadiazole-3-carboxamide] and `Cc1cc(-c2ncnn3cc(-c4cccc(CN5CCC(c6ccc(OC7CCC(=O)NC7=O)cc6)CC5)n4)cc23)ccc1CNC(=O)c1noc(C(C)(C)C)n1` (centres unmarked) [Example 247, 5-(tert-butyl)-N-(4-(6-(6-((4-(4-((2,6-dioxopiperidin-3-yl)oxy)phenyl)piperidin-1-yl)methyl)pyridin-2-yl)pyrrolo[2,1-f][1,2,4]triazin-4-yl)-2-methylbenzyl)-1,2,4-oxadiazole-3-carboxamide] cannot be ordered by DC50: < 100 nM for the first, < 100 nM for the second.

`Cn1nc(N2CCC(=O)NC2=O)c2ccc(C3CCN(Cc4ccc(-c5cc6nccc(-c7ccc(CNC(=O)N8CC(OC(C)(C)C)C8)c(F)c7)n6n5)cc4)CC3)cc21` [Example 165, 3-tert-butoxy-N-[[4-[2-[4-[[4-[3-(2,4-dioxohexahydropyrimidin-1-yl)-1-methyl-indazol-6-yl]-1-piperidyl]methyl]phenyl]pyrazolo[1,5-a]pyrimidin-7-yl]-2-fluoro-phenyl]methyl]azetidine-1-carboxamide] and `Cc1cc(-c2ncnn3cc(CCN4CCC(c5cc6c(cc5F)c(N5CCC(=O)NC5=O)nn6C)CC4)cc23)ccc1CNC(=O)c1noc(C(C)(C)C)n1` [Example 256, 5-(tert-butyl)-N-(4-(6-(2-(4-(3-(2,4-dioxotetrahydropyrimidin-1(2H)-yl)-5-fluoro-1-methyl-1H-indazol-6-yl)piperidin-1-yl)ethyl)pyrrolo[2,1-f][1,2,4]triazin-4-yl)-2-methylbenzyl)-1,2,4-oxadiazole-3-carboxamide] cannot be ordered by DC50: < 100 nM for the first, < 100 nM for the second.

`Cc1cc(-c2ncnn3cc(-c4ccc(CCCCc5ccc(NC6CCC(=O)NC6=O)cc5)cc4)cc23)ccc1CNC(=O)c1noc(C(C)(C)C)n1` (centres unmarked) [Example 149, 5-tert-butyl-N-[[4-[6-[4-[4-[4-[(2,6-dioxo-3-piperidyl)amino]phenyl]butyl]phenyl]pyrrolo[2,1-f][1,2,4]triazin-4-yl]-2-methyl-phenyl]methyl]-1,2,4-oxadiazole-3-carboxamide] and `Cc1cc(-c2ncnn3cc(-c4ccc(CN(C)CC(F)(F)Cc5ccc(NC6CCC(=O)NC6=O)cc5)cc4)cc23)ccc1CNC(=O)c1noc(C(C)(C)C)n1` (centres unmarked) [Example 150, 5-tert-butyl-N-[[4-[6-[4-[[[3-[4-[(2,6-dioxo-3-piperidyl)amino]phenyl]-2,2-difluoro-propyl]-methyl-amino]methyl]phenyl]pyrrolo[2,1-f][1,2,4]triazin-4-yl]-2-methyl-phenyl]methyl]-1,2,4-oxadiazole-3-carboxamide] fall in the same range of DC50: 100 to 500 nM for the first, 100 to 500 nM for the second.

`Cc1cc(-c2ncnn3cc(-c4cccc(CN5CCC(c6ccc(C7CCC(=O)NC7=O)cc6)CC5)n4)cc23)ccc1CNC(=O)c1noc(C(C)(C)C)n1` (centres unmarked) [Example 214, 5-(tert-butyl)-N-(4-(6-(6-((4-(4-(2,6-dioxopiperidin-3-yl)phenyl)piperidin-1-yl)methyl)pyridin-2-yl)pyrrolo [2,1-f][1,2,4]triazin-4-yl)-2-methylbenzyl)-1,2,4-oxadiazole-3-carboxamide] and `Cc1cc(-c2ncnn3cc(-c4cccc(-n5cc(CN6CCC(c7ccc(C8CCC(=O)NC8=O)cc7)CC6)c(C)n5)c4)cc23)ccc1CNC(=O)c1noc(C(C)(C)C)n1` (centres unmarked) [Example 205, 5-(tert-butyl)-N-(4-(6-(3-(4-((4-(4-(2,6-dioxopiperidin-3-yl)phenyl)piperidin-1-yl)methyl)-3-methyl-1H-pyrazol-1-yl)phenyl)pyrrolo[2,1-f][1,2,4]triazin-4-yl)-2-methylbenzyl)-1,2,4-oxadiazole-3-carboxamide] cannot be ordered by DC50: < 100 nM for the first, < 100 nM for the second.

First: CN(CCn1ccc(NC2CCC(=O)NC2=O)n1)Cc1ccc(-c2cc3c(-c4ccc(CNC(=O)c5noc(C(C)(C)C)n5)c(F)c4)ncnn3c2)cc1F (centres unmarked) [Example 34, 5-tert-butyl-N-[[4-[6-[4-[[2-[3-[(2,6-dioxo-3-piperidyl)amino]pyrazol-1-yl]ethyl-methyl-amino]methyl]-3-fluoro-phenyl]pyrrolo[2,1-f][1,2,4]triazin-4-yl]-2-fluoro-phenyl]methyl]-1,2,4-oxadiazole-3-carboxamide]
Second: CC(C)(C)c1nc(C(=O)NCc2ccc(-c3ncnn4cc(-c5ccc(CN6CC[C@H](c7ccc(NC8CCC(=O)NC8=O)cc7)CC67CC7)cc5)cc34)cc2F)no1 (stereo partly drawn) [Example 39, 5-tert-butyl-N-[[4-[6-[4-[[(7S)-7-[4-[(2,6-dioxo-3-piperidyl)amino]phenyl]-4-azaspiro[2.5]octan-4-yl]methyl]phenyl]pyrrolo[2,1-f][1,2,4]triazin-4-yl]-2-fluoro-phenyl]methyl]-1,2,4-oxadiazole-3-carboxamide]
The DC50 of the first is lower: < 100 nM for the first, 100 to 500 nM for the second.

`Cc1cc(-c2ncnn3cc(-c4ccc(CN5CCC(c6ccc(NC7CCC(=O)NC7=O)cn6)CC5)cc4)cc23)ccc1CNC(=O)c1noc(C(C)(C)C)n1` (centres unmarked) [Example 20, 5-tert-butyl-N-[[4-[6-[4-[[4-[5-[(2,6-dioxo-3-piperidyl)amino]-2-pyridyl]-1-piperidyl]methyl]phenyl]pyrrolo[2,1-f][1,2,4]triazin-4-yl]-2-methyl-phenyl]methyl]-1,2,4-oxadiazole-3-carboxamide] and `Cc1cc(-c2ncnn3cc(-c4cccc(CCN5CCC(c6ccc(NC7CCC(=O)NC7=O)cc6)CC5)c4)cc23)ccc1CNC(=O)c1noc(C(C)(C)C)n1` (centres unmarked) [Example 54, 5-tert-butyl-N-[[4-[6-[3-[2-[4-[4-[(2,6-dioxo-3-piperidyl)amino]phenyl]-1-piperidyl]ethyl]phenyl]pyrrolo[2,1-f][1,2,4]triazin-4-yl]-2-methyl-phenyl]methyl]-1,2,4-oxadiazole-3-carboxamide] cannot be ordered by DC50: < 100 nM for the first, < 100 nM for the second.

`Cc1cc(-c2ncnn3cc(-c4ccc(C(=O)NC5CCc6cc(NC7CCC(=O)NC7=O)ccc6C5)cc4)cc23)ccc1CNC(=O)c1noc(C(C)(C)C)n1` (centres unmarked) [Example 197, 5-(tert-butyl)-N-(4-(6-(4-((6-((2,6-dioxopiperidin-3-yl)amino)-1,2,3,4-tetrahydronaphthalen-2-yl)carbamoyl)phenyl)pyrrolo[2,1-f][1,2,4]triazin-4-yl)-2-methylbenzyl)-1,2,4-oxadiazole-3-carboxamide] and `Cc1cc(-c2ncnn3cc(-c4ccc(CN5CCC(c6ccc(NC7CCC(=O)NC7=O)cc6)CC5)cc4)cc23)ccc1CNC(=O)c1ccc(C(C)(C)C)cc1` (centres unmarked) [Example 84, 4-tert-butyl-N-[[4-[6-[4-[[4-[4-[(2,6-dioxo-3-piperidyl)amino]phenyl]-1-piperidyl]methyl]phenyl]pyrrolo[2,1-f][1,2,4]triazin-4-yl]-2-methyl-phenyl]methyl]benzamide] cannot be ordered by DC50: < 100 nM for the first, < 100 nM for the second.

From patent US20240287076A1, “COMPOUNDS FOR TARGETING DEGRADATION OF BRUTON'S TYROSINE KINASE” (BIOGEN MA INC., priority 2021, published 2024)
